Results on 28 molecules are retold here after US12410160B2 (Gilead Sciences, Inc., priority 2021, dated 2025).

By IC50 is commonly meant the point on the concentration scale where inhibition reaches its midpoint. The term EC50 denotes the midpoint of the concentration-response curve.

Assay [1] deals with human KHK-C (Homo sapiens (Human), UniProt P50053). Description: KHK Biochemical Assay (IC50), ADP-Glo, KHK-C. Particulars: average of at least two separate assays. The gist of the method:
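ADP-Glo luminescence measured ADP made over a 4 h room-temperature reaction of ATP plus fructose, started after 30 min compound–enzyme pre-incubation. Buffer: 50 mM Hepes pH 7.4, 140 mM KCl, 5 mM MgCl2, 0.01% Triton-X. Enzyme was His-tagged, BL21 (DE3)-expressed, Ni-NTA-purified; compounds in 1:3 DMSO dilution series.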
(ADP-Glo turns the ADP formed in a reaction into a luminescent signal.)

The target of assay [2] is KHK-C expressed in NRK-52E cells (Homo sapiens (Human), UniProt P50053). Description: KHK-C Cell-based Assay (EC50), NRK CTG, fructose-mediated ATP-depletion.

Read-outs that look alike come from different tables or passages of the source.

Sequence of human KHK-C (P50053 whole entry): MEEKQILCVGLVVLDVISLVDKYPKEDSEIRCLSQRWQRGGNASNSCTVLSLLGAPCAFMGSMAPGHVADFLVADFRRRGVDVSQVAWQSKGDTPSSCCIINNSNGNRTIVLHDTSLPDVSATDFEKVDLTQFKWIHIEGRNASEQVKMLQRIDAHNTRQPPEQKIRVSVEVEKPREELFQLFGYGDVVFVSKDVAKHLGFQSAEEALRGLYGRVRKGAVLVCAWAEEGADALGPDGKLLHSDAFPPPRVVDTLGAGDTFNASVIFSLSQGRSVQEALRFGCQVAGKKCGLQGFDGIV
Sequence of KHK-C expressed in NRK-52E cells (P50053 whole entry): as above

For the molecule `CC1(c2nc3c(c(-c4ccc(C(N)=O)cc4)n2)CCC3)CCC1` [Example 502, 4-(2-(1-methylcyclobutyl)-6,7-dihydro-5H-cyclopenta[d]pyrimidin-4-yl)benzamide], in assay [1], the IC50 amounted to 768 nM. The molecule also showed an EC50 in assay [2] of 2000 nM.

`NC(=O)c1ccc(-c2nc(N3CCCC3=O)nc3c2CCC3)cc1` [Example 418, 4-(2-(2-oxopyrrolidin-1-yl)-6,7-dihydro-5H-cyclopenta[d]pyrimidin-4-yl)benzamide] came in with an IC50 in assay [1] above 5000 nM. The 50% effective concentration (EC50) in assay [2] was above 5000 nM.

In turn, `C[C@H]1[C@H](O)CN1c1nc(-c2ccc3c(c2)CN(S(C)(=O)=O)CC3)c2c(n1)C(F)(F)CC2` [Example 611, (2S,3R)-1-(7,7-difluoro-4-(2-(methylsulfonyl)-1,2,3,4-tetrahydroisoquinolin-7-yl)-6,7-dihydro-5H-cyclopenta[d]pyrimidin-2-yl)-2-methylazetidin-3-ol] displayed an IC50 in assay [1] of 32 nM. For the same molecule, in assay [2], the EC50 came out at 92 nM.

Take `C[C@H]1[C@H](O)CN1c1nc(-c2ccc(C(N)=O)nc2)c2c(n1)C(F)(F)CC2` [Example 168, 5-(7,7-difluoro-2-((2S,3R)-3-hydroxy-2-methylazetidin-1-yl)-6,7-dihydro-5H-cyclopenta[d]pyrimidin-4-yl)picolinamide]: in assay [1] (ADP-Glo), the IC50 stood at 23.3 nM. Moreover, in assay [2], a half-maximal response (EC50) required 144 nM.

Molecule `C[C@H]1CCN1c1nc2c(c(-c3cccc(C4CS(=O)(=O)C4)c3)n1)CCC2` [Example 421, (S)-3-(3-(2-(2-methylazetidin-1-yl)-6,7-dihydro-5H-cyclopenta[d]pyrimidin-4-yl)phenyl)thietane 1,1-dioxide] displayed an IC50 in assay [1] of 67 nM. For the same molecule, in assay [2], the EC50 was 297 nM.

In assay [1], `C[C@H](NS(C)(=O)=O)c1cccc(-c2nc(N3C[C@@H](O)[C@@H]3C)nc3c2CCC3(F)F)c1` [Example 745, N-[(1S)-1-[3-[7,7-difluoro-2-[(2S,3R)-3-hydroxy-2-methyl-azetidin-1-yl]-5,6-dihydrocyclopenta[d]pyrimidin-4-yl]phenyl]ethyl]methanesulfonamide] returned an IC50 of 25.4 nM. For the same molecule, a half-maximal response in assay [2] (EC50) required 162 nM.

In the case of `C[C@H]1CCN1c1nc2c(c(-c3ccc4c(c3)NCCNC4=O)n1)CCC2` [Example 753, 8-[2-[(2S)-2-methylazetidin-1-yl]-6,7-dihydro-5H-cyclopenta[d]pyrimidin-4-yl]-1,2,3,4-tetrahydro-1,4-benzodiazepin-5-one], the IC50 in assay [1] was determined as 10.7 nM. Also, in assay [2], a half-maximal response (EC50) required 33.1 nM.

As for `C[C@H]1CCN1c1nc2c(c(-c3nccn3C)n1)CCC2` [Example 394, 2-[(2S)-2-methylazetidin-1-yl]-4-(1-methylimidazol-2-yl)-6,7-dihydro-5H-cyclopenta[d]pyrimidine], it took 172 nM to reach half-maximal inhibition in assay [1] (IC50). In assay [2], the EC50 worked out at 785 nM.

`CC12CCC(CC1)N2c1nc2c(c(-c3ccc(C(N)=O)cc3)n1)CCC2` [Example 398, 4-(2-(-1-methyl-7-azabicyclo[2.2.1]heptan-7-yl)-6,7-dihydro-5H-cyclopenta[d]pyrimidin-4-yl)benzamide]: in assay [1], the IC50 was above 5000 nM. In addition, in assay [2], the EC50 is above 5000 nM.

For the molecule `CCN1C(=O)N[C@]2(CCc3cc(-c4nc(N5C[C@@H](O)[C@@H]5C)nc5c4CCC5(F)F)ccc32)C1=O` [Example 685, (58)-5′-[7,7-difluoro-2-[(2S,3R)-3-hydroxy-2-methyl-azetidin-1-yl]-5,6-dihydrocyclopenta[d]pyrimidin-4-yl]-3-ethyl-spiro[imidazolidine-5,1′-indane]-2,4-dione], inhibition in assay [1] was half-maximal at 0.2 nM (IC50). Also, in assay [2], the EC50 turned out to be 2.1 nM.

`CC1(C#N)CCN1c1nc2c(c(-c3cccc(S(C)(=O)=O)c3)n1)CCC2` (centres unmarked) [Example 714, 2-methyl-1-(4-(3-(methylsulfonyl)phenyl)-6,7-dihydro-5H-cyclopenta[d]pyrimidin-2-yl)azetidine-2-carbonitrile] displayed an IC50 in assay [1] above 5000 nM. Besides, the half-maximal effective concentration (EC50) in assay [2] was above 5000 nM.

The molecule `CC(C)C[C@H]1C(F)CN1c1nc2c(c(-c3ccc(C(N)=O)cc3)n1)CCC2` (stereo partly drawn) [Example 437, 4-[2-[(2S)-3-fluoro-2-isobutyl-azetidin-1-yl]-6,7-dihydro-5H-cyclopenta[d]pyrimidin-4-yl]benzamide] displayed a half-inhibitory concentration (IC50) in assay [1] above 5000 nM. The molecule further registered an EC50 in assay [2] above 5000 nM.

`C[C@H]1c2ccccc2CN1c1nc2c(c(-c3ccc(C(N)=O)cc3)n1)CCC2` [Example 167, (S)-4-(2-(1-methylisoindolin-2-yl)-6,7-dihydro-5H-cyclopenta[d]pyrimidin-4-yl)benzamide] returned an IC50 in assay [1] (ADP-Glo) above 5000 nM. The same molecule came in with an EC50 in assay [2] above 5000 nM.

In assay [1], `NC(=O)c1ccc(-c2nc(N3CC[C@@H]3C(=O)O)nc3c2CCC3)cc1` [Example 442, (2R)-1-[4-(4-carbamoylphenyl)-6,7-dihydro-5H-cyclopenta[d]pyrimidin-2-yl]azetidine-2-carboxylic acid] registered an IC50 of 1580 nM. In addition, the EC50 in assay [2] amounted to 2730 nM.

`NC(=O)c1ccc(-c2nc(N3CCn4cncc43)nc3c2CCC3)cc1` [Example 174, 4-(2-(2,3-dihydro-1H-imidazo[1,5-a]imidazol-1-yl)-6,7-dihydro-5H-cyclopenta[d]pyrimidin-4-yl)benzamide] registered an IC50 in assay [1] (ADP-Glo) above 5000 nM. In assay [2], this molecule returned an EC50 above 5000 nM.

For the molecule `CS(=O)(=O)NC[C@H]1CCN1c1nc2c(c(-c3ccc(C(N)=O)cc3)n1)CCC2` [Example 457, 4-[2-[(2R)-2-(methanesulfonamidomethyl)azetidin-1-yl]-6,7-dihydro-5H-cyclopenta[d]pyrimidin-4-yl]benzamide], the concentration for half-maximal inhibition (IC50) in assay [1] is 954 nM. This molecule also had an EC50 in assay [2] above 5000 nM.

`C[C@H]1CCN1c1nc2c(c(-c3cnc(N)nc3)n1)CCC2` [Example 732, (S)-5-(2-(2-methylazetidin-1-yl)-6,7-dihydro-5H-cyclopenta[d]pyrimidin-4-yl)pyrimidin-2-amine]: in assay [1], it took 87.9 nM to reach half-maximal inhibition (IC50). The molecule also showed an EC50 in assay [2] of 361 nM.

For the molecule `C[C@H]1CCN1c1nc(-c2ccc3c(c2)OCCC3NS(C)(=O)=O)c2c(n1)C(F)(F)CC2` (stereo partly drawn) [Example 759, N-[7-[7,7-difluoro-2-[(2S)-2-methylazetidin-1-yl]-5,6-dihydrocyclopenta[d]pyrimidin-4-yl]chroman-4-yl]methanesulfonamide], the half-inhibitory concentration (IC50) in assay [1] is 2.3 nM. In assay [2], this molecule came in with an EC50 of 6.9 nM.

`C[C@H]1CCN1c1nc2c(c(-c3cccc([C@H]4C[C@H](C(=O)O)C4)c3)n1)CCC2` (single isomer, unassigned) [Example 441] had an IC50 in assay [1] of 7 nM. The EC50 in assay [2] (read-out: NRK CTG EC50, NRK-52E cells, Cell-Titer Glo, 25 mM fructose) was found to be 211 nM.

`CC(C)(O)[C@H]1CCN1c1nc2c(c(-c3ccc(C(N)=O)cc3)n1)CCC2` [Example 436, 4-[2-[(2R)-2-(1-hydroxy-1-methyl-ethyl)azetidin-1-yl]-6,7-dihydro-5H-cyclopenta[d]pyrimidin-4-yl]benzamide] showed an IC50 in assay [1] of 2730 nM. The molecule further registered an EC50 in assay [2] of 2940 nM.

For `C[C@H]1CCN1c1nc2c(c(-c3cccc(CN4CCCS4(=O)=O)c3)n1)CCC2` [Example 75, (S)-2-(3-(2-(2-methylazetidin-1-yl)-6,7-dihydro-5H-cyclopenta[d]pyrimidin-4-yl)benzyl)isothiazolidine 1,1-dioxide], in assay [1] (ADP-Glo), half-maximal inhibition (IC50) was put at 18.9 nM. A half-maximal response in assay [2] (EC50) required 54.7 nM.

For `C[C@H]1CCN1c1nc2c(c(-c3ccc4[nH]c(N)nc4c3)n1)CCC2` [Example 731, (S)-5-(2-(2-methylazetidin-1-yl)-6,7-dihydro-5H-cyclopenta[d]pyrimidin-4-yl)-1H-benzo[d]imidazol-2-amine], the IC50 in assay [1] worked out at 5.2 nM. This molecule showed an EC50 in assay [2] of 250 nM.

As to `C[C@H]1COc2cc(-c3nc(N4C[C@@H](O)[C@@H]4C)nc4c3CCC4(F)F)ccc2C(=O)N1` [Example 179, (S)-8-(7,7-difluoro-2-((2S,3R)-3-hydroxy-2-methylazetidin-1-yl)-6,7-dihydro-5H-cyclopenta[d]pyrimidin-4-yl)-3-methyl-3,4-dihydrobenzo[f][1,4]oxazepin-5(2H)-one], the IC50 in assay [1] (ADP-Glo) is 34.8 nM. This molecule also came in with an EC50 in assay [2] of 386 nM.

`C[C@H]1CCN1c1nc2c(c(-c3ccncn3)n1)CCC2` [Example 393, 2-[(2S)-2-methylazetidin-1-yl]-4-pyrimidin-4-yl-6,7-dihydro-5H-cyclopenta[d]pyrimidine] gave a half-inhibitory concentration (IC50) in assay [1] of 219 nM. The molecule also yielded an EC50 in assay [2] of 403 nM.

`C[C@H]1CCN1c1nc2c(c(-c3cn(C4COC4)nn3)n1)CCC2` [Example 704, 2-[(2S)-2-methylazetidin-1-yl]-4-[1-(oxetan-3-yl)triazol-4-yl]-6,7-dihydro-5H-cyclopenta[d]pyrimidine]: the midpoint of inhibition in assay [1], the IC50, lay at 254 nM. In addition, the EC50 in assay [2] was 1330 nM.

Consider `C[C@H](NS(C)(=O)=O)c1cccc(-c2nc(N3CC[C@@H]3C)nc3c2CCC3(F)F)c1` [Example 751, N-[(1S)-1-[3-[7,7-difluoro-2-[(2S)-2-methylazetidin-1-yl]-5,6-dihydrocyclopenta[d]pyrimidin-4-yl]phenyl]ethyl]methanesulfonamide], for which the IC50 in assay [1] was found to be 10.8 nM. The EC50 in assay [2] amounted to 17.9 nM.

`C[C@H]1[C@H](O)CN1c1nc2c(c(-c3ccc4c(c3)OCCNC4=O)n1)CCC2` [Example 164, 8-(2-((2S,3R)-3-hydroxy-2-methylazetidin-1-yl)-6,7-dihydro-5H-cyclopenta[d]pyrimidin-4-yl)-3,4-dihydrobenzo[f][1,4]oxazepin-5(2H)-one]: the IC50 in assay [1] (ADP-Glo) was determined as 16.4 nM. In assay [2], this molecule gave an EC50 of 94.5 nM.

Molecule `CS(=O)(=O)c1cccc(-c2nc(N3CCC[C@@H]3C#N)nc3c2CCC3)c1` [Example 713, (R)-1-(4-(3-(methylsulfonyl)phenyl)-6,7-dihydro-5H-cyclopenta[d]pyrimidin-2-yl)pyrrolidine-2-carbonitrile] had an IC50 in assay [1] of 2340 nM. Also, the midpoint of the response in assay [2], the EC50, lay at 4900 nM.
